Assay results published in patent EP1649856A2, “Use of pimecrolimus for selective immunomodulation” (Novartis AG, priority 2001, dated 2002).

How the values were obtained:
[1] = test system: SCID mice reconstituted with CD4^+CD45RB^HI T cells; experiment: SCID-IBD mouse model, treatment from day 1 for 4 weeks; format: in vivo; conditions: 3 and 10 mg/kg/day p.o., steroid-related
Description: A well-established animal model for IBD exists (see Leach et al., Am. J. Pathol., Vol. 148, No. 5, pp. 1503-1515 (1996), and Powrie et al., Int. Immunol., Vol. 5, No. 11, pp. 1461-1471 (1993)). It is known that the transfer of syngeneic, naive T lymphocytes (CD4^+CD45RB^HI) into SCID mice results in a severe colitis and wasting disease, SCID-IBD. Histopathologically, features of both CD and UC are represented in this model which has been used throughout the 1990s to bring the understanding of the pathoetiology of this disease of immune dysregulation in man to its present status. There is no other animal model of IBD which is considered relevant for the human disease, both in mechanism and in validity of clinical treatment.
In this study, SCID mice reconstituted with CD4^+CD45RB^HI T lymphocytes were used. These mice are known to develop chronic colitis with characteristics similar to human IBD, as described above.
In this study, SCID mice were reconstituted with 2 x 10^5 CD4^+CD45RB^HI T cells and then treated with pimecrolimus (30, 60 and 100 mg/kg/day) or vehicle daily p.o. for 4 weeks. […] BW was monitored throughout. On termination, blood was withdrawn, spleen, mesenteric lymph nodes (MLN) and colon were removed. Serum haptoglobin levels were measured (ELISA), colitis was assessed histologically and lymphocyte and neutrophil numbers were calculated from FACS analysis of blood, spleen and MLN cell suspensions.
In order to determine the efficacy of ASM981 treatment in preventing intestinal mucosal damage in SCID-IBD mice, a histological examination of the colon sections was performed according to defined morphological parameters. All colon sections were assessed according to a scheme awarding degrees of severity governed by the extent of cell infiltration and inflammation with a score of 8 being the maximum.

in vivo = experiment: in vivo; parameters: species or system rats; conditions: rat, skin; 2 oral doses of 25 mg/kg in an interval of 2 hours; 6 hours after the last dosing; read-out: skinlblood concentration ratio
Protocol: In another study designed to explore the differences between pimecrolimus and FK506 and to determine whether these differences might be associated with a different tissue distribution, the exposure to pimecrolimus and FK506 in various organs after oral administration were measured. Animals received 2 oral doses of 25 mg/kg in an interval of 2 hours. […] Pimecrolimus was found consistently to have a higher skinlblood concentration ratio than FK506 (2 hours: 7.3 vs. 2.8; 6 hours: 13 vs. 1.6; 24 hours: 36 vs. 6.0). The AUC0-24h in skin calculated for pimecrolimus was twice as high as with FK506.
These distribution characteristics are relevant not only for oral, but also for topical application, as the compound enters systemic circulation after permeation through the skin.

effect on BW [1] | Kp at 6 h (in vivo) | SMILES
accelerated loss in BW | – | C[C@@H]1C[C@H]2[C@@H]3CCC4=CC(=O)C=C[C@]4(C)[C@@]3(F)[C@@H](O)C[C@]2(C)[C@@]1(O)C(=O)CO [Dexamethasone, reference compound]
– | 1.6 | C=CC[C@@H]1/C=C(\C)C[C@H](C)C[C@H](OC)[C@H]2O[C@@](O)(C(=O)C(=O)N3CCCC[C@H]3C(=O)O[C@H](/C(C)=C/[C@@H]3CC[C@@H](O)[C@H](OC)C3)[C@H](C)[C@@H](O)CC1=O)[C@H](C)C[C@@H]2OC [FK506, tacrolimus, reference compound]
